Measurements published in ChEMBL document CHEMBL1144789, “Identification of fredericamycin E from Streptomyces griseus: Insights into fredericamycin A biosynthesis highlighting carbaspirocycle formation” (J Nat Prod, 2008).
pEC50: −log10 of the molar value.

Assays:
Assay type in all cases: functional, cell-based
[1] = Cytotoxicity against mouse P388D1 cells by calcein AM/[…] fluorometric detection
DU-145 = test: Cytotoxicity against human Du145 cells by calcein AM/[…] fluorometric detection
HCT-15 = test: Cytotoxicity against human HCT15 cells by calcein AM/[…] fluorometric detection
HT-29 = test: Cytotoxicity against human HT29 cells by calcein AM/[…] fluorometric detection
MCF7 = test: Cytotoxicity against human MCF7 cells by calcein AM/[…] fluorometric detection
A549 = test: Cytotoxicity against human A549 cells by calcein AM/[…] fluorometric detection

Row | SMILES | pEC50 [1] | pEC50 (DU-145) | pEC50 (HCT-15) | pEC50 (HT-29) | pEC50 (MCF7) | pEC50 (A549)
1 | C/C=C/C=C/c1cc2cc3c(c(O)c2c(=O)[nH]1)[C@@]1(CC3)C(=O)C(=O)c2c(c(O)c3c(O)c(OC)cc(O)c3c2O)C1=O [FDM E] | 6.77 | 5.09 | 5.40 | 5.44 | 5.14 | 5.39
2 | C/C=C/C=C/c1cc2cc3c(c(O)c2c(=O)[nH]1)[C@@]1(CC3)C(=O)c2c(O)c3c(c(O)c2C1=O)C(=O)C(OC)=CC3=O [FDM A] | 7.30 | 5.57 | 5.62 | 6.24 | 6.44 | 5.74
